Assay type in all cases: in vivo
One assay relates to Blattalla germanica. Description: Experimental Example 4: filter paper test with sucrose bait, death rate of Blattalla germanica. The note with it: 144 h; 500 ppm active ingredient, 0.7 ml on filter paper; two male imagoes; after 6 days. How it is done: Preparations of the present compounds (2), (4), (5), (6), (8), (9), (11), (12), (13), (15), (17), (18), (19), (21), (24), (25), (26), (27), (35), (36), (37), (38), (40), (41), (42), (47), (50), (52), (54), (62), (64), (65), (66) and (68) obtained according to Formulation Example 5 were diluted with water so that the active ingredient concentration was 500 ppm to prepare experimental pesticidal solutions.
A filter paper having a diameter of 5.5 cm was spread on the bottom of a polyethylene cup having a diameter of 5.5 cm and 0.7 ml of the experimental pesticidal solution was added dropwise onto the filter paper. As a bait 30 mg of sucrose was uniformly placed on the filter paper. Into the polyethylene cup, two male Blattalla gexmanica images were released and the cup was sealed with a lid. After 6 days, the number of surviving Blattalla germanica was examined and the death rate of the pest was calculated.

The subject of the next assay is Musca domestics. Description: Experimental Example 3: filter paper test with sucrose bait, death rate of Musca domestics. As to conditions: 500 ppm active ingredient, 0.7 ml on filter paper, 10 female imagoes, after 24 hours, read-out: death rate of the pest. As for the experimental part:
Preparations of the present compounds (1), (2), (3), (4), (5), (6), (8), (9), (10), (11), (12), (13), (14), (15), (16), (17), (18), (19), (21), (22), (23), (24), (25), (26), (27), (31), (34), (35), (36), (37), (38), (39), (40), (42), (47), (50), (52), (54), (66), (67) and (68) obtained according to Formulation Example 5 were diluted with water so that the active ingredient concentration was 500 ppm to prepare experimental pesticidal solutions.
A filter paper having a diameter of 5.5 cm was spread on the bottom of a polyethylene cup having a diameter of 5.5 cm and 0.7 ml of the experimental pesticidal solution was added dropwise onto the filter paper. As a bait 30 mg of sucrose was uniformly placed on the filter paper. Into the polyethylene cup, 10 female Musca domestics imagoes were released and the cup was sealed with a lid. After 24 hours, the number of surviving Musca domestics was examined and the death rate of the pest was calculated.

For the next assay, the system named is Culex pipiens pallens. Description: Experimental Example 5: larvae in treated water, death rate of Culex pipiens pallens. As to conditions: 24 h, active ingredient concentration 3.5 ppm in water, 20 last-instar larvae, after one day, read-out: death rate of the pest. How it is done: Preparations of the present compounds (1), (2), (4), (5), (6), (8), (9), (11), (12), (13), (14), (15), (16), (17), (18), (19), (21), (22), (23), (24), (25), (26), (27), (31), (33), (34), (35), (36), (37), (38), (39), (40), (42), (43), (47), (48), (50), (52), (53), (54), (62), (64), (65), (66), (67), (68) and (70) obtained according to Formulation Example 5 were diluted with water so that the active ingredient concentration was 500 ppm to prepare experimental pesticidal solutions.
0.7 ml of the experimental pesticidal solution was added to 100 mL of ion-exchanged water (active ingredient concentration: 3.5 ppm). Into the solution, 20 last-instar larvae of Culex pipiens pallens were released. After one day, the surviving number was examined and the death rate of the pest was calculated.

For `CC(C)(C)c1nc(CC(C#N)(C#N)CCC(F)(F)F)co1` [present compound (9)], the pest or weed control at 500 ppm in the assay with Blattalla germanica is 100%; with Musca domestics, ≥ 90%. In addition, the pest or weed control at 3.5 ppm in the assay with Culex pipiens pallens was ≥ 95%.
The matching figures for `COc1cc(CC(C#N)(C#N)CCC(F)(F)F)on1` [present compound (68)]: 100%, ≥ 90% and ≥ 95%.
Take `CC(C)(C)c1nc(CC(C#N)(C#N)CCC(F)(F)F)no1` [present compound (24)]: the pest or weed control at 500 ppm was 100% in the assay on Blattalla germanica and ≥ 90% with Musca domestics. Besides, the pest or weed control at 3.5 ppm with Culex pipiens pallens was ≥ 95%.
In the same order, the values of `CC(C)(C)c1cc(CC(C#N)(C#N)CCC(F)(F)F)no1` [present compound (6)] are 100%, ≥ 90% and ≥ 95%.
Regarding `N#CC(C#N)(CCC(F)(F)F)Cc1cnc(Cl)s1` [present compound (18)], the pest or weed control at 500 ppm in the assay on Blattalla germanica was 100%; in the assay on Musca domestics, ≥ 90%. Besides, the pest or weed control at 3.5 ppm in the assay on Culex pipiens pallens was ≥ 95%.
For the compound `CCC(c1cc(C(F)(F)F)on1)C(C#N)(C#N)CCC(F)(F)F` (stereo not drawn) [present compound (37)], the results for the pest or weed control at 500 ppm in the assay with Blattalla germanica and in the assay on Musca domestics were 100% and ≥ 90%, respectively. Besides, the pest or weed control at 3.5 ppm with Culex pipiens pallens is ≥ 95%.
On to `CC(C)(C)Cc1nc(CC(C#N)(C#N)CCC(F)(F)F)no1` [present compound (26)], for which the values for the pest or weed control at 500 ppm in the assay on Blattalla germanica and in the assay on Musca domestics were 100% and ≥ 90%, respectively. Moreover, the pest or weed control at 3.5 ppm with Culex pipiens pallens was ≥ 95%.
The matching figures for `N#CC(C#N)(CCC(F)(F)F)Cc1cc(C(F)(F)C(F)(F)F)on1` [present compound (38)]: 100%, ≥ 90% and ≥ 95%.
In the same order, the values of `CC(C)(C)c1cc(CC(C#N)(C#N)CCC(F)(F)F)sn1` [present compound (5)] are 100%, ≥ 90% and ≥ 95%.
In the same order, the values of `CC(C)(C)c1ncc(CC(C#N)(C#N)CCC(F)(F)F)s1` [present compound (17)] are 100%, ≥ 90% and ≥ 95%.
As for `CC(c1cnn(C(C)(C)C)c1)C(C#N)(C#N)CCC(F)(F)F` (stereo not drawn) [present compound (27)], the values for the pest or weed control at 500 ppm in the assay with Blattalla germanica and in the assay on Musca domestics were 100% and ≥ 90%, respectively. Moreover, the pest or weed control at 3.5 ppm in the assay on Culex pipiens pallens was ≥ 95%.
In the case of `CC(C)(C)c1nc(CC(C#N)(C#N)CCC(F)(F)F)cs1` [present compound (12)], the pest or weed control at 500 ppm with Blattalla germanica is 100%; in the assay with Musca domestics, ≥ 90%. The pest or weed control at 3.5 ppm in the assay on Culex pipiens pallens was ≥ 95%.
The matching figures for `CC(F)c1cc(CC(C#N)(C#N)CCC(F)(F)F)no1` (stereo not drawn) [present compound (50)]: 100%, ≥ 90% and ≥ 95%.

The values above are taken from patent publication US7846956B2, “Malononitrile compound as pesticides” (Sumitomo Chemical Company, Limited, priority 2004, dated 2010).
